This note sets out measurements from ChEMBL document CHEMBL1131546, “Synthesis and pharmacological evaluation of benzofuran-acetamides as "antineophobic" mitochondrial DBI receptor complex ligands” (Bioorg Med Chem Lett, 1998).

As usually defined, the pKi is the negative decadic logarithm of the Ki, by convention in mol/L. For orientation: pEC50 means the EC50 on a negative log10 scale, so that one unit is a factor of ten. Low readings indicate a high EC50, high ones a low EC50.

pEC50, pKi: −log10 of the molar value.

The nature of assay [1]: Binding affinity was determined as the ability to displace [3H]4''CD from the (mDRC) mitochondrial DBI receptor complex using primary cultures of glial cells. More on the design: species or system Rattus norvegicus.
Assay [2] concerns Rattus norvegicus. Briefly: Tested for antineophobic activity in rats using elevated maze test upon 53 umol/kg peroral administration, expressed as number of entries into the open arms after 45 min of administration. Format: functional.
Assay [3] relates to Rattus norvegicus. Briefly: Tested for antineophobic activity in rats using elevated maze test upon 53 umol/kg peroral administration, expressed as percent of time spent into open arms after 45 min of administration. Format: functional.
The test system of assay [4] is Rattus norvegicus. Briefly: Tested for antineophobic activity in rats using elevated maze test upon 57 umol/kg peroral administration, expressed as percent of time spent into open arms after 45 min of administration. Format: functional.
Assay [5] relates to Rattus norvegicus. Briefly: Tested for antineophobic activity in rats using elevated maze test upon 57 umol/kg peroral administration, expressed as number of entries into the open arms after 45 min of administration. Format: functional.
The test system of assay [6] is Rattus norvegicus. Briefly: Tested for antineophobic activity in rats using elevated maze test upon 70 umol/kg peroral administration, expressed as number of entries into the open arms after 45 min of administration. Format: functional.
For assay [7], the system named is Rattus norvegicus. Briefly: Tested for antineophobic activity in rats using elevated maze test upon 70 umol/kg peroral administration, expressed as percent of time spent into open arms after 45 min of administration. Format: functional.
Assay [8] in a line: Concentration required to stimulate pregnenolone formation in the mitochondria of C6-2B glioma cells. Format: functional, Rattus norvegicus.
The subject of assay [9] is Rattus norvegicus. Briefly: Tested for antineophobic activity in rats using elevated maze test upon 59 umol/kg peroral administration, expressed as number of entries into the open arms after 45 min of administration. Format: functional.
Assay [10] concerns Rattus norvegicus. Briefly: Tested for antineophobic activity in rats using elevated maze test upon 59 umol/kg po administration, expressed as percent of time spent into open arms after 45 min of administration. Format: functional.

Regarding `CCCCCCN(CCCCCC)C(=O)Cc1c(-c2ccc(F)cc2)oc2ccc(Cl)cc12`, in assay [1], the pKi was 7.49. Also, the “No. of openarm entries” value in the assay with Rattus norvegicus [2] amounted to 2.3. In the assay on Rattus norvegicus [3], the Time turned out to be 4.7%.
In assay [1], `CCCCCCN(CCCCCC)C(=O)Cc1c(-c2ccc(F)cc2)oc2ccccc12` showed a pKi of 8.10. This compound also returned a Time in the assay with Rattus norvegicus [4] of 5.1%. In the assay with Rattus norvegicus [5], the “No. of openarm entries” value was found to be 2.1.
In the case of `CCCCCCN(CCCCCC)C(=O)Cc1c(-c2ccccc2)oc2ccc(Cl)cc12`, in [1], the negative logarithm of the Ki (pKi) was 7.49. Also, in the assay with Rattus norvegicus [6], the “No. of openarm entries” value is 2.1. In the assay with Rattus norvegicus [7], this compound showed a Time of 4.7%.
The compound `CCCCCCN(CCCCCC)C(=O)Cc1c(-c2ccc(F)cc2)[nH]c2ccccc12` showed a negative logarithm of the Ki (pKi) in assay [1] of 8.36. In assay [8], this compound had a pEC50 of 8.52. The compound further registered a Time in the assay on Rattus norvegicus [4] of 4.5%. Besides, the “No. of openarm entries” value in the assay with Rattus norvegicus [5] came out at 2.1.
Turning to `CCCCCCN(CCCCCC)C(=O)Cc1c(-c2ccc(N)cc2)oc2ccccc12`, the negative-log Ki (pKi) in assay [1] is 7.46.
Turning to `CCCCCCN(CCCCCC)C(=O)Cc1c(-c2ccc(I)cc2)oc2ccccc12`, in assay [1], the pKi was 7.10.
Regarding `CCCCCCN(CCCCCC)C(=O)Cc1c(-c2ccccc2)oc2ccccc12`, in the assay on Rattus norvegicus [9], the “No. of openarm entries” value worked out at 2.6. In assay [1], this compound showed a negative-log Ki (pKi) of 7.85. The compound also yielded a Time with Rattus norvegicus [10] of 4.5%.
